Consider 2 substances from US20250120372A1, “HUMANIZED MOUSE MODEL OF FIBROSIS” (The Jackson Laboratory, priority 2021, published 2025).

Series [1] has as its system NSG-SGM3 BLT mice. The note with it: mouse, in vivo.
Description: SLG20 alginate 500 μm diameter spheres (“alginate spheres,” 0.5 ml total implant volume) were implanted into the intraperitoneal (IP) space of pro-fibrotic C57BL/6 mice and various humanized mouse models, retained for 28 days, and analyzed for degree of fibrosis upon alginate sphere retrieval. […] Experiments repeated at least 3 times.
Implanted mice were anesthetized with 3% isoflurane in oxygen and their abdomens were shaved and sterilized using betadine and isopropanol. Preoperatively, all mice received 0.05 mg/kg buprenorphine and 0.2 mL of 0.9% saline SC for pre-surgery analgesia and hydration. A midline incision (0.5 mm) was made and the peritoneal lining was exposed using blunt dissection. The peritoneal wall was then grasped with forceps and a 0.5-1 mm incision was made along the linea alba. 500 μL of spheres were then loaded into a sterile pipette and implanted into the intraperitoneal (IP) space. The incision was then closed using 5-0 PDS II absorbable sutures, and the skin was closed using wound clips and VetBond tissue glue. […] For macrophage depletion, clodrosomes (200 μL/mouse) (Encapsula NanoSciences, Nashville, TN) were injected IP starting at −3 days (prior to implant day 0), and for every 7 days thereafter (on days −3, 4, and 11). […]
Series [2] has as its system NSG-SGM3 BLT mice. The note with it: mouse, in vivo, sc.
Description: All wild type male immune-competent C57BL/6 mice or immunodeficient strains used for producing humanized models (described below) were ordered pathogen-free from The Jackson Laboratory (Bar Harbor, ME). Implanted mice were anesthetized with 3% isoflurane in oxygen and their abdomens were shaved and sterilized using betadine and isopropanol. Preoperatively, all mice received 0.05 mg/kg buprenorphine and 0.2 mL of 0.9% saline SC for pre-surgery analgesia and hydration.
For phase contrast imaging retrieved materials were gently washed using Krebs buffer and transferred into 35 mm petri dishes for phase contrast microscopy using an EVOS XL microscope (Advanced Microscopy Group). For bright-field imaging of retrieved materials, samples were gently washed using Krebs buffer and transferred into 35 mm petri dishes for bright-field imaging using a Leica Stereoscopic microscope.
Retrieved material-containing tissue (intraperitoneal and/or subcutaneous) was fixed overnight using 4% paraformaldehyde at 4° C. After fixation, alginate sphere or retrieved tissue samples were washed using 70% alcohol. The materials were then paraffin embedded, sectioned at 5 μm thickness and stained according to standard histological (H&E or Masson's Trichrome) methods.

In the case of “polydimethylsiloxane [PDMS 5 mm molded discs]”, in the series with NSG-SGM3 BLT mice [1], the FBR / fibrosis result was “fibrosis of synthetic biomaterial polymer implants was observed”.

Take polystyrene [Polystyrene spheres]: the FBR / fibrosis result in the series with NSG-SGM3 BLT mice [1] is recorded as “fibrosis of synthetic biomaterial polymer implants was observed”. For the same substance, the “fibrotic encapsulation upon retrieval” value in the series with NSG-SGM3 BLT mice [2] is “prominent fibrotic encapsulation”.
